From US20190201377A1, “METHODS AND COMPOSITIONS FOR TREATMENT OF LIPID STORAGE DISORDERS” (Neurotrope BioScience, Inc., priority 2014, published 2019)

Assays:
[1] = test system: M12 NPC1 CHO cells; test: Cholesterol storage by filipin staining in NPC1 CHO (M12) cells; assay type: cell-based, Chinese hamster; conditions: for filipin fluorescence, % of levels in untreated cells: oleic/linoleic acids for 48 hours, M12 CHO cells
Method: The human wild-type fibroblast (GM05387), NPC1o fibroblast (GM09341), and NPC1 fibroblast (GM03123) cell lines were obtained from Coriell Cell Repositories (Camden, N.J.). The M12 Chinese hamster ovary (CHO) cell line and its wild-type parental line were obtained and cultured. Fibroblast cell lines were cultured in DMEM, and CHO cells were cultured in DMEM/F12 (50:50) medium, supplemented with 10% FBS, 2 mM L-glutamine, and 50 μg/ml gentamicin in a humidified incubator at 37° C. with 5% CO2. For filipin staining in transfected cells, cells were transfected with PKC or Rab9 using Fugene 6 according to the manufacturer's recommendations. After 48 hrs, cells were stained with filipin as we have previously described [3 7]. Cells were mounted onto slides using Fluoromount-G (Southern Biotech, Birmingham, Ala.) and analyzed on a Nikon Eclipse microscope fitted with a charge-coupled-device camera (Nikon, Melville, N.Y.). Images were acquired with MetaVue software and then deconvoluted using AutoDeblur software from AutoQuant Imaging, Inc (Troy, N.Y.). For quantitation of filipin fluorescence, cells were seeded at 3×10^5 cells/well in 6-well dishes and allowed to settle overnight, after which the medium was replaced with medium containing 10% lipoprotein deficient serum (LPDS) for 4 days. Cells were incubated with oleic/linoleic acids for 48 hours, […] for 24 hrs, or diazoxide for 72 hrs before fixing and staining with filipin as we have previously described. Images were acquired using the same exposure time for all samples. Fluorescence intensity was determined using the integrated intensity function of MetaVue software; at least 150 cells were quantitated for each sample and each experiment was repeated 3 times. For analysis of sphingolipid transport, cells were incubated with oleic/linoleic acids, DCP-LA, or PMA for 48 hours before BODIPY-LacCer staining was performed as previously described.

[2] = test system: human NPC1 3123 cells; test: Sphingolipid transport by BODIPY-LacCer staining; assay type: cell-based; conditions: 48 hours
Source text: For filipin staining in transfected cells, cells were transfected with PKC or Rab9 using Fugene 6 according to the manufacturer's recommendations. After 48 hrs, cells were stained with filipin as we have previously described [3 7]. Cells were mounted onto slides using Fluoromount-G (Southern Biotech, Birmingham, Ala.) and analyzed on a Nikon Eclipse microscope fitted with a charge-coupled-device camera (Nikon, Melville, N.Y.). Images were acquired with MetaVue software and then deconvoluted using AutoDeblur software from AutoQuant Imaging, Inc (Troy, N.Y.). For quantitation of filipin fluorescence, cells were seeded at 3×10^5 cells/well in 6-well dishes and allowed to settle overnight, after which the medium was replaced with medium containing 10% lipoprotein deficient serum (LPDS) for 4 days. Cells were incubated with oleic/linoleic acids for 48 hours, DCPLA/DHA for 24 hrs, or diazoxide for 72 hrs before fixing and staining with filipin as we have previously described. Images were acquired using the same exposure time for all samples. Fluorescence intensity was determined using the integrated intensity function of MetaVue software; at least 150 cells were quantitated for each sample and each experiment was repeated 3 times. For analysis of sphingolipid transport, cells were incubated with oleic/linoleic acids, DCP-LA, or PMA for 48 hours before BODIPY-LacCer staining was performed as previously described.
To further confirm the positive effects of DCP-LA and fatty acids on the NPC1 phenotype, human NPC1 cells were treated with DCP-LA, fatty acids, or PMA to activate PKCs. […] Following absorption to the plasma membrane, the LacCer sphingolipid enters normal cells via endocytosis and eventually reaches the trans-Golgi network (TGN; [30]). […] Human NPC1 cells treated as indicated in FIG. 7 show a dramatic improvement in lipid transport with the BODIPY-LacCer effectively reaching the TGN (FIG. 7; arrows) compared to untreated cells that show only punctate, endosomal fluorescence (FIG. 7A).

[3] = test system: NPC cells; conditions: PMA treatment of NPC cells, earlier study [5]; cited from earlier work
[4] = test system: M12 NPC1 CHO cells; test: Cholesterol esterification assay in M12 NPC1 CHO cells; assay type: cell-based, Chinese hamster; conditions: for esterification levels over untreated cells: 50 μg/ml fatty acid for 2 days followed by expression of PKC ε
Method: The preparation of [3H] oleate substrate and esterification assays were performed as previously described. Cells were treated with 50 μg/ml fatty acid for 2 days and then transfected with […] or PKCε for 24 hrs before esterification assays. All values were generated in triplicate and normalized for total cell protein.

[5] = test system: human NPC1 3123 cells; test: Cholesterol storage by filipin staining in human NPC1 3123 fibroblasts; assay type: cell-based; conditions: oleic/linoleic acids for 48 hours
Method: The human wild-type fibroblast (GM05387), NPC1o fibroblast (GM09341), and NPC1 fibroblast (GM03123) cell lines were obtained from Coriell Cell Repositories (Camden, N.J.). The M12 Chinese hamster ovary (CHO) cell line and its wild-type parental line were obtained and cultured. Fibroblast cell lines were cultured in DMEM, and CHO cells were cultured in DMEM/F12 (50:50) medium, supplemented with 10% FBS, 2 mM L-glutamine, and 50 μg/ml gentamicin in a humidified incubator at 37° C. with 5% CO2. For filipin staining in transfected cells, cells were transfected with PKC or Rab9 using Fugene 6 according to the manufacturer's recommendations. After 48 hrs, cells were stained with filipin as we have previously described [3 7]. Cells were mounted onto slides using Fluoromount-G (Southern Biotech, Birmingham, Ala.) and analyzed on a Nikon Eclipse microscope fitted with a charge-coupled-device camera (Nikon, Melville, N.Y.). […] For quantitation of filipin fluorescence, cells were seeded at 3×10^5 cells/well in 6-well dishes and allowed to settle overnight, after which the medium was replaced with medium containing 10% lipoprotein deficient serum (LPDS) for 4 days. […] Fluorescence intensity was determined using the integrated intensity function of MetaVue software; at least 150 cells were quantitated for each sample and each experiment was repeated 3 times. […]

[6] = test system: human NPC24-SV cells; test: Cholesterol accumulation by filipin staining in NPC24-SV cells; assay type: cell-based; conditions: for effect in cholesterol assay: NPC24-SV cells, FIG. 13
Method: (§1) Cells are plated in 6-well dishes and treated with the appropriate compound (dissolved in DMSO) at the indicated dose daily for 48 hrs. Control cells receive DMSO. After 48 hrs cells are transferred to cover slips with fresh compound and grown for another 24 hrs. Cover slips are collected and processed for microscopy.
(§2) For detection of unesterified cholesterol in lysosomes, cells were fixed in formalin for 30 min at 4° C., washed 2×, 5 min in 0.9% NaCl, incubated for 45 min with 0.01% filipin in PBS at room temperature, and then washed 2×, 5 min. Fluorescence was observed using a Nikon Eclipse fluorescence microscope (Nikon, Melville, N.Y.) equipped with a CCD camera. Fluorescence signals were quantified using Nikon's imaging and quantitation software package NIS Elements, v.3.22.

[7] = test system: NPC3-SV cells; test: Stored cholesterol by filipin staining in NPC3-SV cells; assay type: cell-based, Human; conditions: for clearance of cholesterol from NPC1 cells: 48 h, FIG. 8, different drug concentrations; for stored cholesterol levels: 72 h, FIG. 9
Method: as §1, §2

[8] = test system: NPC3-SV cells; assay type: cell-based, Human
[9] = test system: C57 NPC1 mice; test: Treatment of C57 NPC1 mice, life span; assay type: in vivo, mouse
Method: A total of […] C57B16 NPC1 mice, mixed sex, were used. These mice were separated into […], Groups 1-5.
Bryostatin 1 (purity ≥:95%) from Aphios (Woburn, Mass.), 1 vial 2 mg, was solubilized in a 5% DMSO, 20% Solutol and 75% Saline solution and used as the study drug. The negative (vehicle) control is a 5% DMSO, 20% Solutol and 75% Saline solution. DCP-LA from Sigma-Aldrich: 5 mg oil/vial was used as an additional in vitro active compound. Bryostatin 1 (API) was stored at or below −20° C. and formulated as needed. The formulated bryostatin 1 was stored at 2° to 8° C. for less than 24 hour(s). The DCP-LA and the vehicle controls were stored at 2°-8° C.
The stock solution of bryostatin 1 is 1 Omg/ml in DMSO, which is kept at −80° C. in aliquots. The dosing formulation is made by diluting the stock first in DMSO, then adding solutol, and lastly saline-with more insoluble compounds, adding the drug stock to complete vehicle will cause the compound to come out of solution, so we make formulations stepwise. The dosing volume is always 100 μl. Mice weigh approximately 20 g.
The mice are dosed twice weekly (Mon and Thu) starting at 30 days for up to 150 days.
C57 NPC1 mice have an average life span of ˜110 days. By Day 70 mice reach an average weight of 18-22 grams. Untreated NPC1 mice develop ataxia and will begin to lose weight at ˜70 days (see FIG. 17). Ataxia (or lack of voluntary muscle control) is a clinical feature of NPC1 mice, which may be described as shaking. Treatment will be initiated at ˜30 days of age, average NPC mouse weight of 10 g. If the drug is efficacious injections will continue past day 70-80. An extension of life of about 20-30% will mean that animals will need to be treated up to day 130-150.

[10] = test system: human NPC24-SV cells; test: Glycosphingolipid accumulation by VTB staining in NPC24-SV cells; assay type: cell-based
[11] = test system: NPC3SV cells; assay type: cell-based, Human

With `CC/C=C\C/C=C\C/C=C\C/C=C\C/C=C\C/C=C\CCC(=O)O` [DHA, docosahexanoic acid] the “reduction of cholesterol storage (filipin intensity)” value (shortened to “reduction of cholesterol storage”) ([1]; 10 μM DHA, 24 hrs (overnight)) was about 50%.
In the case of `CCCCCCCCCCCCCC(=O)O[C@@H]1[C@@H](C)[C@@]2(O)[C@@H](C=C(CO)C[C@]3(O)C(=O)C(C)=C[C@@H]23)[C@@H]2C(C)(C)[C@]12OC(C)=O` [PMA, phorbol-12-myristate-13-acetate], the “BODIPY-LacCer transport to the trans-Golgi network” value (from here on “BODIPY-LacCer transport”) ([2]; 100 nM PMA) is given as “the lipid can be seen in the TGN” and the “NPC lipid storage phenotype” value [3] is given as “ameliorated the NPC lipid storage phenotype”.
In the case of `CCCCCCCC/C=C\CCCCCCCC(=O)O` [oleic acid, cis-9-octadecenoic acid], the “esterification levels over untreated cells” value [4] is reported as about 3.5 fold, the “filipin fluorescence, % of levels in untreated cells” value (from here on “filipin fluorescence, % of levels”) [1] is reported as about 75% and the “filipin fluorescence, % of levels” value [5] is reported as about 75%. For the same molecule, the “BODIPY-LacCer transport” value ([2]; 2 μg/ml oleic acid) was “the lipid can be seen in the TGN”.
For `CCC/C=C/C=C/C(=O)O[C@H]1/C(=C/C(=O)OC)C[C@H]2C[C@H]([C@@H](C)O)OC(=O)C[C@H](O)C[C@@H]3C[C@H](OC(C)=O)C(C)(C)[C@](O)(C[C@@H]4C/C(=C/C(=O)OC)C[C@H](/C=C/C(C)(C)[C@]1(O)O2)O4)O3` [bryostatin 1], the “effect in cholesterol assay” value ([6]; 0.1 nM) was “no effect”, the “effect in cholesterol assay” value ([6]; 1 nM, increases with increasing concentration) was “statistically significant” and the cholesterol clearance ([6]; 10 nM bryostatin 1, NPC24-SV cell line, FIG. 11) was “able to effect cholesterol 2 clearance”. The “concentration showing a positive therapeutic effect for human NPC1 disease cells” value ([6]; summary of the cholesterol and glycosphingolipid assays of Example 2) was 10 to 100 nM, the “clearance of cholesterol from NPC1 cells” value [7] was “able to induce clearance of cholesterol” and the stored cholesterol levels [7] was “most active compound showing activity in the nanomolar concentration range”. The “glycosphingolipid accumulation (VTB)” value [8] was “statistically significant effectiveness in decreasing the glycosphingolipid accumulation”, the “age that mice lived past” value ([9]; 10 μg/kg IP twice weekly starting at 30 days) was over 100 days and the “age that mice lived past” value ([9]; 20 μg/kg IP twice weekly starting at 30 days) was over 100 days. The “age that mice lived past” value ([9]; 30 μg/kg IP twice weekly starting at 30 days) was over 100 days, the “effect in sphingolipid assay” value ([10]; 0.1 nM, FIG. 14) was “no effect” and the “effect in sphingolipid assay” value ([10]; 1 nM, FIG. 14, increases with increasing concentration) was “statistically significant”. For the same molecule, the “clearance of endosome-trapped cholera toxin (CTB)” value [11] was “able to clear the endosome-trapped cholera toxin (CTB)”.
For `CC1=NS(=O)(=O)c2cc(Cl)ccc2N1` [diazoxide], the “clearance of cholesterol from NPC1 cells” value [7] was “able to induce clearance of cholesterol” and the “reduction of cholesterol storage” value ([1]; 100 μM diazoxide, 72 hrs) was about 50%.
With `CCCCC/C=C\C/C=C\CCCCCCCC(=O)O` [linoleic acid] the “increase of cholesterol esterification compared to untreated M12 cells” value ([4]; 50 μg/ml fatty acid for 2 days) was “greater than 2 fold”, the “esterification levels over untreated cells” value [4] was about 3.5 fold and the “filipin fluorescence, % of levels” value [1] was about 75%. The “filipin fluorescence, % of levels” value [5] was about 75% and the “BODIPY-LacCer transport” value ([2]; 2 μg/ml linoleic acid) was “the lipid can be seen in the TGN”.
With `CCCCCC1CC1CC1CC1CCCCCCCC(=O)O` (stereo not shown) [DCP-LA, 8-[2-(2-pentylcyclopropylmethyl)-cyclopropyl]-octanoic acid] the filipin accumulation ([6]; DCPLA, concentration not given, NPC24-SV cell line, FIG. 11) was “decrease filipin accumulation”, the “clearance of cholesterol from NPC1 cells” value [7] was “able to induce clearance of cholesterol” and the stored cholesterol levels [7] was “decrease stored cholesterol levels”. The “stored glycosphingolipid levels (VTB)” value [8] was “decrease stored glycosphingolipid levels”, the “reduction of cholesterol storage” value ([1]; 100 μM DCP-LA, 24 hrs (overnight)) was about 50% and the “BODIPY-LacCer transport” value ([2]; 20 μM DCP-LA) was “the lipid can be seen in the TGN”. The “ganglioside transport block (CTB)” value ([11]; DCPLA, concentration not given, NPC3SV cells, FIG. 12) was “release the ganglioside transport block”.
